Measurements reported in paper PMC8877061, “Antifungal and Antibiofilm Activity of Cyclic Temporin L Peptide Analogues against Albicans and Non-Albicans Candida Species” (Pharmaceutics, 2022).
“Also recorded” adds a separate entry of the source. Like-named read-outs stand apart in the source and are kept apart here. Positions of bridges follow the written chain, without caps; N, C: chain ends. Non-standard residues stand in square brackets, D forms with d. Residues, ends and D or L forms follow the SMILES beside them. Triazole bridges read from a SMILES are 1,4-linked. Lys(N3) = [N-]=[N+]=NCCCC[C@H](N)C(=O)O; Pra = C#CC[C@H](N)C(=O)O

Experiments:
C. auris DSM 21092 = assay type: cell-based; details: DSM 21092, 24 h
Method: (§1) C. albicans ATCC 90028, C. auris DSM 21092, C. glabrata DSM 11226, C. tropicalis DSM11951 and C. parapsilosis DSM 4874 grown on YPD Agar (1% w/v yeast extract, 2% w/v peptone, 2% w/v glucose, 1.5% Agar) were cultured in Tryptone soya broth supplemented with 0.1% glucose for 16–18 h at 37 °C, washed twice using sterile phosphate-buffered saline (PBS) and standardized to […] as required for the experiments. RPMI1640 medium (Thermo Fisher Scientific, Waltham, MA, USA) buffered to a pH of 7.0 with 0.165 M MOPS was used for growing the biofilms of all Candida species.
(§2) The antifungal activity of peptides against all five Candida species was determined according to CLSI-M27-A3 [33], as reported previously. Briefly, the compounds were tested at concentrations ranging from […] to 50 μM, and the organism suspensions were adjusted to an inoculum of 10^6 cell/mL at OD 590 nm in RPMI 1640, added to the 96-well plate and incubated at 37 °C for 24 h. The minimum inhibitory concentration (MIC) values were determined as the lowest concentration inhibiting fungal growth at 590 nm using a microplate reader (Synergy™ H4; BioTek Instruments, Inc., Winooski, VT, USA). […] The MFC was the lowest concentration that yielded no colony growth on the agar. The MFC/MIC ratio was calculated to determine whether the substance had fungistatic (MFC/MIC ≥ 4) or fungicidal (MFC/MIC < 4) activity.

C. glabrata DSM 11226 = assay type: cell-based
Method: as §1, §2

C. tropicalis DSM 11951 = assay type: cell-based
Method: as §1, §2

[1] = tested on: C. albicans preformed biofilm; assay: Eradication of preformed biofilm (XTT); assay type: cell-based; details: peptide 6.25 μM, 24-h old biofilm, 24 h treatment
Method: as §1
(§3) Biofilm inhibition and eradication assays were performed as previously described in [37]. […] After the incubation period, non-adherent cells were detached by washing each sample three times in sterile PBS. […] The total biomass was quantified by a crystal violet assay for the inhibition. The vital biomass was quantified by XTT for test eradication by using the tetrazolium 2,3-bis (2-methoxy-4-nitro-5 sulfophenyl)-5-[(phenylamine) carbonyl]-2H-hydroxide reduction assay (XTT) (Sigma-Aldrich, St. Luis, MO, USA) according to the manufacturer’s instructions. The absorbance was measured spectrophotometrically at 492 nm. The percentages of inhibition or eradication were calculated as follows: % biofilm reduction = Abs control − Abs sample/Abs control × 100.

[2] = tested on: C. parapsilosis preformed biofilm; assay: Eradication of preformed biofilm (XTT); assay type: cell-based; details: peptide 6.25 μM, 24-h old biofilm, 24 h treatment
Method: as §1, §3

[3] = tested on: S. typhimurium strain TA100; assay type: cell-based; details: 12.5 µM, TA100 without S9, 37 °C, 5 days, duplicate; MR ≥2 = mutagenic
Method: The fluctuation Ames test was performed according to the manufacturer’s protocol provided for the Muta-ChromoPlate Bacterial Strain Kit (EBPI, Canada) and according to OECD Guideline 471 (OECD Guidelines for the Testing of Chemicals, Section 4, Test No. 471: Bacterial Reverse Mutation Test). S. typhimurium strain TA100 was used to assess the bacterial reverse mutation from amino acid (histidine) auxotrophy to prototrophy after exposure to mutagens. The overnight TA100 cultures were exposed to each peptide at a 12.5-µM concentration in the presence of bromocresol purple and then dispensed into 96-well microtiter plates. The plates were incubated at 37 °C for 5 days. After this period, the number of positive colonies was counted and statistically compared with the number of positive colonies in the blank wells to identify the spontaneous mutation rate. The negative control was distilled water, while the positive control was sodium azide for TA100 without S9. All experiments were conducted in duplicate. The results were expressed as the mutagenicity ratio (MR) and were obtained by dividing the number of reverse mutation colonies by the spontaneous mutation rate. When the MR was ≥2, the sample was judged to be mutagenic.

C. albicans ATCC 90028 = assay type: cell-based; details: ATCC 90028, 24 h
Method: as §1, §2

[4] = Circular dichroism in liposomes mimicking fungal membranes; assay type: physicochemical; details: SUVs PE/PC/PI/ergosterol
Method: The circular dichroism spectra of the selected peptides (3, 7, 15 and 16) were recorded in small unilamellar vesicles (SUVs) composed of PE/PC/PI/Ergosterol (5:4:1:2, w/w/w/w, final lipid concentration = 0.01 mM) and DOPC/Chol (70:30, ratio in moles, final lipid concentration = 0.1 mM), between 190 and 260 nm on a JASCO J-710 CD spectropolarimeter at 25 °C using quartz cells with a 0.1-cm path length. The SUVs were prepared as reported in the following protocol. Once the lipid films were prepared as described above, they were hydrated with a phosphate buffer (5 mM, pH 7.4) (DOPC:Chol) or water (PE/PC/PI/Ergosterol) for 1 h and sonicated for 40 min. […] We accumulated the data three times, and all spectral data were subtracted from the background. Each spectrum converted the signal to the mean molar ellipticity, and we calculated the ratio of the ellipticities at 222 and 208 nm to discriminate between the monomeric and oligomeric states of the helices. The helix content was calculated as follows: [θ]222/(−40,000[1 − 2.5/n)], where [θ]222 is the ellipticity measurement at 222 nm and n is the number of amino acid residues.

[5] = CLSI-M27-A3, RPMI 1640, 10^6 cell/mL, 37 °C, 24 h, read at 590 nm

SMILES: CC[C@H](C)[C@H](NC(=O)[C@H](CCCNC(=N)N)NC(=O)[C@@H]1CCC(=O)NCCCC[C@H](NC(=O)[C@H](Cc2ccccc2)NC(=O)[C@H](Cc2c[nH]c3ccccc23)NC(=O)[C@@H]2CCCN2C(=O)[C@@H](NC(=O)[C@@H](N)Cc2ccccc2)C(C)C)C(=O)N[C@@H](CCCCN)C(=O)N[C@@H](Cc2ccccc2)C(=O)N[C@H](CC(C)C)C(=O)N1)C(=O)N[C@@H](CC(C)C)C(N)=O [compound 3] (H-FVPWFKKF[dL]ERIL-NH2; lactam 6-10; N-terminus assumed)
- MFC, C. auris DSM 21092 (C. auris DSM 21092): 50 µM
- MIC, C. auris DSM 21092 (C. auris DSM 21092): 50 µM
- MFC, C. glabrata DSM 11226 (C. glabrata DSM 11226; DSM 11226, 24 h): 50 µM
- MIC, C. glabrata DSM 11226 (C. glabrata DSM 11226; DSM 11226, 24 h): 50 µM
- MFC, C. tropicalis DSM 11951 (C. tropicalis DSM 11951; DSM 11951, 24 h): 50 µM
- MIC, C. tropicalis DSM 11951 (C. tropicalis DSM 11951; DSM 11951, 24 h): 50 µM
- eradication of preformed biofilm, C. albicans [1]: 50%
- eradication of preformed biofilm, C. parapsilosis [2]: 50%
- mutagenicity ratio (MR) [3]: < 2

SMILES: CC(C)C[C@H](NC(=O)[C@@H]1CCCCn2cc(nn2)C[C@H](NC(=O)[C@H](CCCCN)NC(=O)[C@H](CO)NC(=O)[C@H](Cc2ccccc2)NC(=O)[C@H](Cc2c[nH]c3ccccc23)NC(=O)[C@@H]2CCCN2C(=O)[C@@H](NC(=O)[C@@H](N)Cc2ccccc2)C(C)C)C(=O)N[C@H](CC(C)C)C(=O)NCC(=O)N[C@@H](CCCNC(=N)N)C(=O)N1)C(N)=O [compound 7] (H-FVPWFSK[Pra][dL]GR[Lys(N3)]L-NH2; triazole 8-12; N-terminus assumed)
- MFC, C. auris DSM 21092 (C. auris DSM 21092): >50 µM
- MIC, C. auris DSM 21092 (C. auris DSM 21092): 50 µM
- MFC, C. glabrata DSM 11226 (C. glabrata DSM 11226; DSM 11226, 24 h): 50 µM
- MIC, C. glabrata DSM 11226 (C. glabrata DSM 11226; DSM 11226, 24 h): 50 µM
- MFC, C. tropicalis DSM 11951 (C. tropicalis DSM 11951; DSM 11951, 24 h): 50 µM
- MIC, C. tropicalis DSM 11951 (C. tropicalis DSM 11951; DSM 11951, 24 h): 50 µM
- mutagenicity ratio (MR) [3]: < 2

SMILES: CC[C@H](C)[C@H](NC(=O)[C@H](CCCNC(=N)N)NC(=O)[C@@H]1CCCCNC(=O)CC[C@H](NC(=O)[C@H](Cc2ccccc2)NC(=O)[C@H](Cc2c[nH]c3ccccc23)NC(=O)[C@@H]2CCCN2C(=O)[C@@H](NC(=O)[C@@H](N)Cc2ccccc2)C(C)C)C(=O)N[C@@H](CCCCN)C(=O)N[C@@H](Cc2ccccc2)C(=O)N[C@H](CC(C)C)C(=O)N1)C(=O)N[C@@H](CC(C)C)C(N)=O [compound 15] (H-FVPWFEKF[dL]KRIL-NH2; lactam 6-10; N-terminus assumed)
- MFC, C. albicans ATCC 90028 (C. albicans ATCC 90028): > 50 µM
- MFC, C. auris DSM 21092 (C. auris DSM 21092): >50 µM
- MIC, C. auris DSM 21092 (C. auris DSM 21092): 50 µM
- MFC, C. glabrata DSM 11226 (C. glabrata DSM 11226; DSM 11226, 24 h): >50 µM
- MIC, C. glabrata DSM 11226 (C. glabrata DSM 11226; DSM 11226, 24 h): 50 µM
- MFC, C. tropicalis DSM 11951 (C. tropicalis DSM 11951; DSM 11951, 24 h): >50 µM
- MIC, C. tropicalis DSM 11951 (C. tropicalis DSM 11951; DSM 11951, 24 h): 50 µM
- mutagenicity ratio (MR) [3]: < 2

SMILES: CC[C@H](C)[C@H](NC(=O)[C@H](CCCNC(=N)N)NC(=O)[C@@H]1CSSC[C@H](NC(=O)[C@H](Cc2ccccc2)NC(=O)[C@H](Cc2c[nH]c3ccccc23)NC(=O)[C@@H]2CCCN2C(=O)[C@@H](NC(=O)[C@@H](N)Cc2ccccc2)C(C)C)C(=O)N[C@@H](CCCCN)C(=O)N[C@@H](Cc2ccccc2)C(=O)N[C@H](CC(C)C)C(=O)N1)C(=O)N[C@@H](CC(C)C)C(N)=O [compound 16] (H-FVPWFCKF[dL]CRIL-NH2; disulfide 6-10; N-terminus assumed)
- MFC, C. albicans ATCC 90028 (C. albicans ATCC 90028): >50 µM
- MFC, C. auris DSM 21092 (C. auris DSM 21092): >50 µM
- MIC, C. auris DSM 21092 (C. auris DSM 21092): 50 µM
- MIC, C. glabrata DSM 11226 (C. glabrata DSM 11226; [5]): 25 µM
- MFC, C. glabrata DSM 11226 (C. glabrata DSM 11226; DSM 11226, 24 h): 50 µM
- MIC, C. tropicalis DSM 11951 (C. tropicalis DSM 11951; [5]): 25 µM
- MFC, C. tropicalis DSM 11951 (C. tropicalis DSM 11951; DSM 11951, 24 h): 50 µM
- mutagenicity ratio (MR) [3]: < 2
- conformation by CD in fungal membrane-like SUVs, 10 μM ([4]; peptide 10 μM): random coil conformation; also recorded: random coil structure
- conformation by CD in fungal membrane-like SUVs, 50 μM ([4]; peptide 50 μM): α-helical molecular aggregates
